Test results as given in US20060194748A1, “Methods for treating disorders induced by H. pylori infections and pharmaceutical compositions for the same” (National University Corporation Nagoya University, priority 2005, published 2006).
Converted amounts (≈) assume the structure as drawn. Where two headings read alike, the source gives them in different places.

Experiments:
[1] = system: H. pylori strain 26695; experiment: MBC of AMX with glycine by liquid culture method
Protocol: H. pylori was treated with the indicated concentrations of the test compounds for 3 days. AMX was used at concentrations of 0 to 75 ng/ml. […] The mean value for the log number of CFU per milliliter at each concentration was plotted.
By a second method, the minimal bactericidal concentrations (MBCs), defined as the lowest concentration of each antibiotic that completely killed the isolates, were determined by using liquid cultures with antimicrobial agents by a modification of the method of Sjöström et al. (31). […] After 3 days of incubation of H. pylori at 37° C. under microaerophilic conditions, aliquots from each culture were applied to BB agar for determination of the MBC. After 4 days of incubation, the number of CFU was counted.

[2] = system: H. pylori 26695; experiment: Time-kill curve test
Protocol: Glycine in BB was added to the cultures at the start of incubation. The mean values for the log number of CFU per milliliter versus time for H. pylori were tested with different concentrations of glycine. At 12-h intervals after drug addition, aliquots of each culture were spread onto BB agar for determination of the number of CFU.
The time course of the antibacterial effects was determined with strain 26695 (18). Briefly, bacteria cultured for 4 days on BB agar were diluted with fresh BB to ˜10^8 CFU/ml. […] At 0, 12, 24, 36, and 48 h, samples were removed and 0.1 ml of 10-fold serial dilution was plated onto BB agar. […] At 0, 6, 12, 18, and 24 h, samples were removed and 0.1 ml of 10-fold serial dilutions was plated onto BB agar. The number of colonies growing on the plates after 4 days of incubation was counted in both studies.

[3] = system: H. pylori strains; experiment: MIC of CLR for donor strains and CLR-resistant isogenic mutants (agar/disk dilution); format: cell-based, Helicobacter pylori
Protocol: The susceptibilities of the CLR-resistant strains were determined by the agar dilution method (27). […] The MIC of glycine was defined as the lowest concentration that inhibited the visible growth of isolates completely by the agar dilution method on Mueller-Hinton agar (Becton Dickinson and Company, Paramus, N.J.) plates supplemented with 5% aged sheep blood (Nippon Bio-Test Laboratories Inc., Tokyo, Japan) (M-H agar) (27).
(§1) Briefly, all isolates were incubated for 4 days on BB agar. After this incubation, inocula were prepared by suspending growth from the BB agar plates with antimicrobial agents in saline to achieve a suspension equivalent to a 2.0 McFarland standard. Final inocula of 10^6 CFU/spot were applied to M-H agar or BB. All plates were incubated for 3 days at 35° C. in a microaerophilic atmosphere, and the number of CFU was counted. In the liquid culture study, aliquots from each culture were applied to BB agar after 3 days of incubation of H. pylori at 37° C. under microaerophilic conditions. After 4 days of incubation, the number of CFU was counted. The mean value for the log number of CFU per milliliter was plotted.
CLR-resistant isogenic mutants with a single point mutation in domain V of the 23S rRNA gene were created from strain 26695 by natural transformation (3, 29). Transformants were isolated, and the MICs of CLR were determined by the disk dilution method.

[4] = system: Lactococcus lactis subspecies; details: cited from earlier work
[5] = system: 31 H. pylori strains, including CLR-resistant strains; experiment: microbe, parasite or virus in culture; details: Helicobacter pylori
[6] = system: 31 H. pylori strains, including CLR-resistant strains
[7] = system: CLR-susceptible and CLR-resistant H. pylori strains
Protocol: H. pylori strains were treated with the indicated concentrations of test compound for 3 days. The mean value for the log number of CFU per milliliter of all CLR-susceptible and all CLR-resistant H. pylori strains at each concentration was plotted. Glycine was used at concentrations of 0, 0.5, 1, 1.5, 2.0, and 2.5 mg/ml. […] Symbols: ▪, CLR-susceptible strains; ▴, CLR-resistant strains.
as §1

[8] = system: H. pylori strain 26695
Protocol: The PAE on bacteria was measured by a modification of the method of Ibrahim et al. (19). After 4 days of growth of strain 26695 on BB agar, the bacteria were harvested, placed into PBS, and diluted with BB to ˜10^8 CFU/ml; and a final inoculum of 10^6 CFU/ml was applied to BB agar. […] After incubation for 8 h, the antibiotics were removed by dilution 1:10^3 into fresh BB and the cultures were incubated for 24 h. Samples were collected for viable counts (numbers of CFU per milliliter) every 4 h, plated onto BB agar plates, and incubated for 4 days. Viability curves were then determined. The control culture, which was not exposed to any antimicrobial agents, was treated similarly.
For quantification of the PAE, viable counts were determined before and after antibiotic exposure.

CC1(C)S[C@@H]2[C@H](NC(=O)[C@H](N)c3ccc(O)cc3)C(=O)N2[C@H]1C(=O)O [AMX, amoxicillin]
MBC of AMX with glycine relative to that of AMX alone [1]: 1/10 | MBC ([1]; Helicobacter pylori, 26695, read-out: MBC of AMX with glycine, with glycine at 0.5 mg/ml): 0.025 µg/mL | MBC ([1]; Helicobacter pylori, 26695, read-out: MBC of AMX with glycine, with glycine at 1 mg/ml): 0.01 µg/mL | MBC ([1]; Helicobacter pylori, 26695, read-out: MBC of AMX, with glycine at 0 mg/ml (AMX alone)): 0.075 µg/mL | viable cells at 24 h ([2]; AMX alone at 75 ng/ml): no viable cells

CC[C@H]1OC(=O)[C@H](C)[C@@H](O[C@H]2C[C@@](C)(OC)[C@@H](O)[C@H](C)O2)[C@H](C)[C@@H](O[C@@H]2O[C@H](C)C[C@H](N(C)C)[C@H]2O)[C@](C)(OC)C[C@@H](C)C(=O)[C@H](C)[C@@H](O)[C@]1(C)O [CLR, clarithromycin]
MIC of CLR ([3]; isogenic mutant strain 26695:535): 4 µg/mL | MIC of CLR ([3]; isogenic mutant strain 26695:628): 32 µg/mL | MIC of CLR ([3]; strain 535 (donor, A-to-G at position 2144)): 4 µg/mL | MIC of CLR ([3]; strain 628 (donor, A-to-G at position 2143)): 32 µg/mL

NCC(=O)O [glycine, Glycine]
glycine content of medium above which growth failed [4]: more than 2% | MIC50 [5]: 1500 µg/mL (≈ 20 mM) | MIC90 ([5]; 31 strains): 2500 µg/mL (≈ 33.3 mM) | MIC ([5]; ATCC43504, read-out: MIC of glycine): 2500 µg/mL | MIC ([5]; read-out: MIC of glycine): 2500 µg/mL | MIC ([5]; read-out: glycine MICs for the 31 strains): 1000 to 2500 µg/mL (≈ 13.3 to 33.3 mM) | time of significant decrease in number of CFU (P<0.01) ([2]; glycine alone, all concentrations): 48 h | earliest time of significant decrease in number of CFU (P<0.01) ([2]; glycine at 5 mg/ml): 24 h | earliest time of significant decrease in number of CFU (P<0.01) ([2]; glycine at 10 mg/ml): 12 h | nature of the effect of glycine ([2]; time-kill, 0 to 10 mg/ml): bactericidal | MIC of glycine [6]: the same as the MIC for strain 26695 | difference in glycine MIC for CLR-susceptible and -resistant strains [6]: no difference | glycine concentration above which no colonies were detected in M-H agar ([6]; all strains tested): more than 2.5 mg/ml | difference in suppression of growth between CLR-susceptible and -resistant strains ([7]; including isogenic mutant strains, FIG. 1): no difference | 80% Inh. % ([7]; see FIG. 1): 0.05 mg/mL | PAE against H. pylori [8]: no PAE
